# US7265131B2, “Isoquinolinone derivatives and their use as therapeutic agents” (Exelixis, Inc., priority 2002, dated 2007)
# Molecular target: T1, LXRα (Homo sapiens, UniProt Q13133)
# T1 construct: were made by cloning the appropriate full-length cDNAs into the pBacPakhis1 vector; poly-His (pBacPakhis1) (N); made in house; host or cells: Sf9 insect cells (baculovirus), crude lysate
# Assay: Scintillation proximity assay (SPA), competition with 3H-24,25-epoxycholesterol
# Assay type: binding
# Details: average Ki with respect to LXR α
# Method: The SPA assay measures the radioactive signal generated by the binding of ^3H-24,25-epoxycholesterol to LXRα or LXRβ. The basis of the assay is the use of SPA beads containing a scintillant, such that when binding to the receptor brings the labeled ligand into proximity with the bead, the energy from the label stimulates the scintillant to emit light. The light is measured using a standard microplate scintillation reader. The ability of a ligand to bind to a receptor can be measured by assessing the degree to which the compound can compete off a radiolabelled ligand with known affinity for the receptor.
# 1. Label: ^3H-24,25-epoxy-cholesterol (Amersham)
# 2. LXRα lysate: Baculovirus expressed LXRα/RXR heterodimer with RXR having a 6-HIS tag produced as a crude lysate
# 4. SPA beads: Ysi copper His-tag SPA beads (Amersham)
# Baculovirus expression plasmids for human RXR α (accession No NM_002957), LXR a (accession No U22662), LXR β (accession No U07132) were made by cloning the appropriate full-length cDNAs into the pBacPakhis1 vector (Clontech, CA) following standard procedures. Insertion of the cDNAs into the pBAcPakhis1 vector polylinker created an in frame fusion to the cDNA to an N-terminal poly-His tag present in pBacPakhis1. Correct cloning was confirmed by restriction mapping, and/or sequencing.
# Cell lysates were prepared by infecting healthy, Sf9 insect cells at a density of approximately 1.25×10^6/ml at 27° C., in a total volume of 500 mL per 1 L sized spinner flasks, cultured under standard conditions. To prepare LXRα lysate, insect cells were co-transfected with the LXR α expression cassette at an M.O.I of 0.5 to 0.8 and with the RXR expression cassette at a M.O.I. of approximately 1.6. To prepare LXRβ lysate, insect cells were co-transfected with the LXR β expression cassette at an M.O.I of approximately 1.6 and with the RXR expression cassette at a M.O.I. of approximately 1.6. In both cases cells were incubated for 48 hours at 27° C. with constant shaking prior to harvesting.
# After incubation, cells were harvested by centrifugation and pelleted. Cell pellets were resuspended in two volumes of ice-cold freshly prepared extraction buffer (20 mM Tris pH 8.0, 10 mM Imidazole, 400 mM NaCl, containing one EDTA free protease inhibitor tablet (Roche Catalog No: 1836170) per 10 ml of extraction buffer).
# Cells were homogenized slowly on ice using a Douncer to achieve 80-90% cell lysis. The homogenate was centrifuged in a pre-chilled rotor (Ti50 or Ti70, or equivalent) at 45,000 rpm for 30 minutes at 4° C. Aliquots of the supernatant were frozen on dry ice and stored frozen at −80° C. until quantification and quality control. Aliquots of the lysates were tested in the SPA assay to ensure lot to lot consistency, and via SDS-PAGE analysis after purification using Ni-NTA Resin (Qiagen) and adjusted for protein concentration and expression level prior to use in screening assays.
# [^3H] 24,25 Epoxycholesterol (EC) solution: For a single 384-well plate (or 400 wells), 21 μL of [^3H] EC (specific activity 76.5 Ci/mmol, concentration 3.2 mCi/mL) was added to 4.4 mL of 2×SPA buffer to provide for a final concentration of 200 nM. For each additional 384-well plate, an additional 19.1 μL of [^3H] EC was added to 4.0 mL of additional 2×SPA buffer. The final concentration of [^3H] EC in the well was 50 nM.
# LXRα lysate (prepared as above) was diluted with protein lysate dilution buffer. 1400 μL of diluted LXRα lysate was prepared per 384-well plate, (or 200 wells) and 1120 μL of diluted LXRα lysate was prepared for each additional 384-well plate.
# SPA bead solution: For a 384-well plate (or 400 wells), 3.75 mL of 2×SPA buffer w/o EDTA, 2.25 mL of H2O, and 1.5 mL of Ysi His-tag SPA beads (vortex well before taking) were mixed together. For each additional 384-well plate, an additional 3.5 mL of 2×SPA buffer w/o EDTA, 2.1 mL of H2O, and 1.4 mL of Ysi His-tag SPA beads were mixed together. […]
# T1 sequence (Q13133 whole entry): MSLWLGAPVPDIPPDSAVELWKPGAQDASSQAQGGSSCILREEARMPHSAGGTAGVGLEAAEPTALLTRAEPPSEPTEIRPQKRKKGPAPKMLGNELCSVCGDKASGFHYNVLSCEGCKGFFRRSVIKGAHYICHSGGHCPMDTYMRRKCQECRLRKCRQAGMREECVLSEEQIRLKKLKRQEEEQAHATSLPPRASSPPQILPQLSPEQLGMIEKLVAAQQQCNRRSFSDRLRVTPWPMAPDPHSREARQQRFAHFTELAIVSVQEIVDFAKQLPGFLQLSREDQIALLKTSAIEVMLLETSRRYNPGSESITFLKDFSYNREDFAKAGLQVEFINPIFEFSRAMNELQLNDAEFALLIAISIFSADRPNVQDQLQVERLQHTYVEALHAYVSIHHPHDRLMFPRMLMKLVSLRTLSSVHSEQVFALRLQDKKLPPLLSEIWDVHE
# T1 sequence (P19793 whole entry, further chain): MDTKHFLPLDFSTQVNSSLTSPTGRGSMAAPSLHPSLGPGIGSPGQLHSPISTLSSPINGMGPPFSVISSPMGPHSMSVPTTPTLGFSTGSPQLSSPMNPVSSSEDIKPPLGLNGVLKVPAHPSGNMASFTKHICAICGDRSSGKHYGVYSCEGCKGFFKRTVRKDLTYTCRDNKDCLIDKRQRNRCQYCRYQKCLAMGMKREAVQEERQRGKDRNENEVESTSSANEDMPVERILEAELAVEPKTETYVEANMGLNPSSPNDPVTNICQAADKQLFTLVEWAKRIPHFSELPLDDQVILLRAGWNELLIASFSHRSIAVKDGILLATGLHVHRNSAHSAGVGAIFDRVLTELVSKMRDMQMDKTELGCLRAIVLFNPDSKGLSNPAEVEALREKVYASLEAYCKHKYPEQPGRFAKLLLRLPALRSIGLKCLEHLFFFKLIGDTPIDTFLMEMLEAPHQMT
row,Ki [nM],SMILES
1,10 to 150,"Cc1ccc(Cn2c(-c3ccc(Oc4ccccc4)cc3)cc3ccccc3c2=O)c(C)c1 [2-(2,4-dimethylbenzyl)-3-(4-phenoxyphenyl)-2H-isoquinolin-1-one]"
2,150 to 500,"O=c1c2c(Cl)cccc2cc(-c2cc(-c3cc(C(F)(F)F)cc(C(F)(F)F)c3)co2)n1Cc1ccc(F)cc1F [3-[4-(3,5-bis-trifluoromethylphenyl)furan-2-yl]-8-chloro-2-(2,4-difluorobenzyl)-2H-isoquinolin-1-one]"
3,10 to 150,"Nc1ccc(-c2coc(-c3cc4cccc(Cl)c4c(=O)n3Cc3ccc(F)cc3F)c2)cc1C(F)(F)F [3-[4-(4-amino-3-trifluoromethylphenyl)furan-2-yl]-8-chloro-2-(2,4-difluorobenzyl)-2H-isoquinolin-1-one]"
4,> 500,"CCOc1ccc(-c2csc(-c3cc4cccc(Cl)c4c(=O)n3Cc3ccc(F)cc3F)c2)cc1Cl [8-chloro-3-[4-(3-chloro-4-ethoxyphenyl)thiophen-2-yl]-2-(2,4-difluorobenzyl)-2H-isoquinolin-1-one]"
5,> 500,"Cc1ccc(Cn2c(C#CC(C)(C)O)cc3ccccc3c2=O)c(C)c1 [2-(2,4-dimethylbenzyl)-3-(3-hydroxy-3-methylbut-1-ynyl)-2H-isoquinolin-1-one]"
6,10 to 150,O=c1c2c(Cl)cccc2cc(-c2ccc(Oc3ccccc3)cc2)n1Cc1cccs1 [8-chloro-3-(4-phenoxyphenyl)-2-thiophen-2-ylmethyl-2H-isoquinolin-1-one]
7,> 500,Cc1cccc(-c2cc3ccccc3c(=O)n2Cc2ccccc2)c1 [2-benzyl-3-m-tolyl-2H-isoquinolin-1-one]
8,10 to 150,O=c1c2c(Cl)cccc2cc(-c2ccc(Oc3ccccc3)cc2)n1CC1CCCCC1 [8-chloro-2-cyclohexylmethyl-3-(4-phenoxyphenyl)-2H-isoquinolin-1-one]
9,10 to 150,"CS(=O)(=O)c1ccc(-c2ccc(-c3cc4cccc(Cl)c4c(=O)n3Cc3ccc(F)cc3F)s2)cc1 [8-chloro-2-(2,4-difluorobenzyl)-3-[5-(4-methanesulfonylphenyl)thiophen-2-yl]-2H-isoquinolin-1-one]"
10,10 to 150,"O=c1c2c(Cl)cccc2cc(-c2ccc(Oc3ccccc3)cc2)n1Cc1ccc(F)cc1F [8-chloro-2-(2,4-difluorobenzyl)-3-(4-phenoxyphenyl)-2H-isoquinolin-1-one]"
11,> 500,"Cc1ccc(Cn2c(-c3ccsc3)cc3ccccc3c2=O)c(C)c1 [2-(2,4-dimethylbenzyl)-3-thiophen-3-yl-2H-isoquinolin-1-one]"
12,10 to 150,Cc1ccc(Cn2c(-c3ccc(Oc4ccccc4)cc3)cc3cccc(C)c3c2=O)cc1 [8-methyl-2-(4-methylbenzyl)-3-(4-phenoxyphenyl)-2H-isoquinolin-1-one]
13,150 to 500,"Cc1cccc(-c2cc3ccccc3c(=O)n2Cc2ccc(C)cc2C)c1 [2-(2,4-dimethylbenzyl)-3-m-tolyl-2H-isoquinolin-1-one]"
14,10 to 150,"O=c1c2c(Cl)cccc2cc(-c2ccc(Oc3cnccn3)cc2)n1Cc1ccc(F)cc1F [8-chloro-2-(2,4-difluorobenzyl)-3-[4-(pyrazin-2-yloxy)phenyl]-2H-isoquinolin-1-one]"
